{"source": "patent US4423218A", "about": "“Antibiotic neplanocin A” (Toyo Jozo Kabushiki Kaisha, priority 1978, dated 1983)", "key": {"[1]": {"tested_on": "Helminthosporium oryzae M 0306", "assay": "Growth inhibitory activity on plant pathogenic fungi (agar plate)", "format": "cell-based", "conditions": "Bipolaris oryzae, M0306; 100 γ/ml solution, agar plate of Helminthosporium oryzae M 0306; read-out: inhibitory zone diameter", "description": "(1) Growth inhibitory activity on plant pathogenic fungi: […]"}, "[2]": {"assay": "in vivo", "conditions": "mouse, ip, mice"}, "[3]": {"assay": "Repeated intraperitoneal administration for 14 days, mortality", "format": "in vivo", "conditions": "intraperitoneally for 14 days, 5 mg/kg/day"}, "[4]": {"assay": "Solubility", "format": "physicochemical"}, "[5]": {"assay": "Nature (basicity)", "format": "physicochemical"}}, "data": [{"smiles": "Nc1ncnc2c1ncn2C1C=C(CO)C(O)C1O", "note": "(single isomer, unassigned) [neplanocin A]", "values": [{"measurement": "zone of inhibition at 100 µg/mL", "setting": "[1]", "value": 18.9, "unit": "mm"}, {"measurement": "LD50", "setting": "[2]", "value": 13.7, "unit": "mg/kg"}, {"measurement": "mortalities", "setting": "[3]", "value": "No mortalities were observed"}, {"measurement": "Solubility", "setting": "[4]; acetic acid", "value": "Soluble"}, {"measurement": "Solubility", "setting": "[4]; aqueous acetone", "value": "Soluble"}, {"measurement": "Solubility", "setting": "[4]; benzene", "value": "Insoluble"}, {"measurement": "Solubility", "setting": "[4]; chloroform", "value": "Insoluble"}, {"measurement": "Solubility", "setting": "[4]; dimethylformamide", "value": "Soluble"}, {"measurement": "Solubility", "setting": "[4]; dimethylsulfoxide", "value": "Soluble"}, {"measurement": "Solubility", "setting": "[4]; ethyl acetate", "value": "Insoluble"}, {"measurement": "Solubility", "setting": "[4]; hexane", "value": "Insoluble"}, {"measurement": "Solubility", "setting": "[4]; water", "value": "Soluble"}, {"measurement": "Nature", "setting": "[5]", "value": "weakly basic"}]}]}
